Assay type in all cases: cell-based
For assay [1], the system named is S. pneumoniae. As to the kind of experiment: MIC by agar plate dilution against clinical isolates of S. pneumoniae. The settings on record: 3 strains (clinical isolates), Iso-Sensitest agar, 18 to 24 hr, 35° C. The procedure: (§1) Minimal Inhibitory concentrations (MIC) of inhibitors against clinical isolates of S. pneumoniae, H. influenzae and M. catarrhalis obtained from the Public Health and Clinical Microbiology Laboratory, Addenbrooke's Hospital, Hills Road, Cambridge CB2 2QW, UK, were determined by a standard agar plate dilution method following recommendations in British Society for Antimicrobial Chemotherapy Working Party. 1991 “A guide to sensitivity testing British Society for Antimicrobial Chemomtherapy, London, United Kingdom”. Briefly Iso-Sensitest agar (pH 7.2: Oxoid, United Kingdom) was employed supplemented with 5% horse blood (Oxoid) and 20 μg of NAD (Sigma) per ml to support growth of fastidious bacteria. The inoculum used was approximately 10^4 colony forming units of each isolate contained in a volume of 1 μl. Plate were incubated 18 to 24 hr in air, -or for fastidious bacteria an atmosphere enriched with 4-6% carbon dioxide at 35° C. The MIC was determined as the lowest concentration of an antimicrobial tested that inhibited growth of the inoculum, disregarding a single persisting colony or faint haze caused by the inoculation.
(§2) The compounds of the Examples were are antibacterially active in the above assays, The following table states the MIC ranges of the tested compounds against 3 strains of S. pneumoniae, 2 strains of H. influenzae and 1 strain of M. catarrhalis.

Assay [2] relates to H. influenzae. Nature of the assay: MIC by agar plate dilution against clinical isolates of H. influenzae. The settings on record: Haemophilus influenzae, 2 strains (clinical isolates), Iso-Sensitest agar, 18 to 24 hr, 35° C., read-out: MIC range H. influenzae. On the procedure:
as §1, §2

The subject of assay [3] is M. catarrhalis. Nature of the assay: MIC by agar plate dilution against clinical isolate of M. catarrhalis. The conditions noted are these: Moraxella catarrhalis, 1 strain (clinical isolate), Iso-Sensitest agar, 18 to 24 hr, 35° C. On the procedure:
as §1, §2

The structures appear in SMILES notation. In brackets after ≈: the same amount, converted by molar mass. A value given as a limit tells only on which side of the number the result lay.

Turning to `CC(C)N(CC(=O)N1CCCC1)NC(=O)[C@H](CC1CCCC1)CN(O)C=O` [Example 2], in assay [1], the “MIC range S. pneumoniae” value lay within 4 to 16 µg/mL. Further, the results for the MIC in assay [2] and in assay [3] were 8 µg/mL (≈ 20.9 µM) and 0.5 µg/mL (≈ 1.31 µM), respectively.
With `CC(C)N(CC(=O)N(C)C)NC(=O)[C@H](CC1CCCC1)CN(O)C=O` [Example 3, 2-{N′-[(2R)-Cyclopentylmethyl-3-(formyl-hydroxy-amino)-propionyl]-N-isopropyl-hydrazino}-N,N-dimethyl-acetamide], the MIC in assay [2] was 0.5 to 1 µg/mL (≈ 1.4 to 2.81 µM); in assay [3], 0.5 µg/mL (≈ 1.4 µM).
Turning to `COc1cc2c(cc1OC)CN(C(=O)CN(NC(=O)[C@H](CC1CCCC1)CN(O)C=O)C(C)C)CC2` [Example 4, N-{3-Cyclopentyl-(2R)-[N′-[2-(6,7-dimethoxy-3,4-dihydro-1H-isoquinolin-2-yl)-2-oxo-ethyl]-N′-isopropyl-hydrazinocarbonyl}-propyl)-N-hydroxy-formamide], the “MIC range S. pneumoniae” value in assay [1] is 1 to 2 µg/mL. In addition, the MIC in assay [2] came out at 32 µg/mL (≈ 63.4 µM); in assay [3], 0.5 µg/mL (≈ 0.991 µM).
Taken in the same sequence, the figures for `CC(C)N(CC(=O)N1CCN(Cc2ccc3c(c2)OCO3)CC1)NC(=O)[C@H](CC1CCCC1)CN(O)C=O` [Example 5, N-(2-{N′-[(2R)-(4-Benzo[1,3]dioxol-5-ylmethyl-piperazin-1-yl)-2-oxo-ethyl]-N′-isopropyl-hydrazinocarbonyl}-3-cyclopentylpropyl)-N-hydroxy formamide] were 1 to 4 µg/mL, greater than 32 µg/mL and 1 µg/mL (≈ 1.88 µM).
For the compound `CC(C)N(CC(=O)Nc1cccnc1)NC(=O)[C@H](CC1CCCC1)CN(O)C=O` [Example 6], the results for the MIC in assay [2] and in assay [3] were 32 µg/mL (≈ 78.9 µM) and 2 µg/mL (≈ 4.93 µM), respectively.
`CC(C)N(CC(=O)Nc1nccs1)NC(=O)[C@H](CC1CCCC1)CN(O)C=O` [Example 7, 2-{N′-[(2R)-Cyclopentylmethyl-3-(formyl-hydroxy-amino)-propionyl]-N-isopropyl-hydrazino}-N-thiazol-2-yl-acetamide]: the “MIC range S. pneumoniae” value in assay [1] was 16 to 32 µg/mL. The MIC in assay [2] was 16 to 32 µg/mL (≈ 38.9 to 77.8 µM); in assay [3], 2 µg/mL (≈ 4.86 µM).
Turning to `Cc1coc(NC(=O)CN(NC(=O)[C@H](CC2CCCC2)CN(O)C=O)C(C)C)n1` [Example 8, 2-{N′-[(2R)-Cyclopentylmethyl-3-(formyl-hydroxy-amino)-propionyl]-N-isopropyl-hydrazino}-N-(4-methyl-oxazol-2-yl)-acetamide], in assay [1], the “MIC range S. pneumoniae” value was 8 to 16 µg/mL. This compound came in with an MIC in assay [3] of 2 µg/mL (≈ 4.88 µM).
`Cc1csc(NC(=O)CN(NC(=O)[C@H](CC2CCCC2)CN(O)C=O)C(C)C)n1` [Example 9, 2-{N′-[(2R)-Cyclopentylmethyl-3-(formyl-hydroxy-amino)-propionyl]-N-isopropyl-hydrazino}-N-(4-methyl-thiazol-2-yl)-acetamide]: in assay [1], the “MIC range S. pneumoniae” value is 16 to 32 µg/mL. Also, the MIC is greater than 32 µg/mL in assay [2] and 2 µg/mL (≈ 4.7 µM) in assay [3].
The matching figures for `CC(C)N(CC(=O)Nc1nc2ccccc2s1)NC(=O)[C@H](CC1CCCC1)CN(O)C=O` [Example 10, N-Benzothiazol-2-yl-2-{N′-[(2R)-cyclopentylmethyl-3-(formyl-hydroxy-amino)-propionyl]-N-isopropyl-hydrazino)acetamide]: 1 to 4 µg/mL, greater than 32 µg/mL and 2 µg/mL (≈ 4.33 µM).

Values taken from patent US20060172990A1, “Antibacterial agents” (priority 2002, published 2006).
